Entries after “also recorded” stand apart in the source; their conditions may differ.
Key:
[1] = system: rat colonic mucosa; settings: apical and basolateral membrane, ref Silos‐Santiago et al. 2013, Tchernychev et al. 2015; cited from earlier work
Text: (§1) While the increase in intracellular cGMP following ligand activation of GC‐C is well established, the efflux of cGMP from enterocytes is not well studied.

[2] = via extracellular cGMP; ref Castro et al. 2013; Silos‐Santiago et al. 2013; Hannig et al. 2014; cited from earlier work
Text: as §1

[3] = system: Caco‐2 cell line; settings: human colonic Caco‐2 cell line; ref Castro et al. 2013; Silos‐Santiago et al. 2013; cited from earlier work
Text: as §1

[4] = system: mouse colonic mucosa; settings: apical and basolateral membrane, ref Silos‐Santiago et al. 2013, Tchernychev et al. 2015; cited from earlier work
Text: as §1

[5] = system: cGKII (PKGII); experiment: VASP Ser239 phosphorylation in C2BBe cells, Western blot; format: cell-based, human; settings: linaclotide 1 and 3.27 μmol/L, 30 min, 8Br‐cGMP 0.2 and 1 mmol/L positive control
Protocol: C2BBe or T84 cells were homogenized in TGH lysis buffer [25 mmol/L HEPES, 10% (vol/vol) glycerol, 1% (vol/vol) Triton‐ × 100, pH 7.4] containing protease inhibitors (10 nmol/L iodoacetamide, 1 mmol/L phenylmethylsulfonyl fluoride (PMSF), 2 μg/mL leupeptin) for 30 min on ice. Homogenates were solubilized, subject to centrifugation at 13,200 g for 15 min at 4°C, and cleared supernatants were recovered. Protein concentration of the supernatant was determined with Coomassie Protein Assay Reagent (Pierce) and samples prepared and analyzed as described (Kravtsov et al. 2016). Quantification of surface‐labeled proteins was performed with Quantity One image analysis software.
VASP was originally characterized as a substrate for both PKG (cGMP‐dependent kinase) and PKA (cAMP‐dependent kinase). […] To determine linaclotide‐induced activation of cGKII, we determined the phosphorylation of VASP^Ser239 30 min following treatment either with vehicle or linaclotide (1 μmol/L and 3.27 μmol/L; the 3.27 μmol/L concentration is equivalent to the 5 μg dose of linaclotide that was used in vivo in the rat jejunum loop). The membrane permeant cGMP analog, 8 Br‐cGMP (0.2 mmol/L, 1 mmol/L), was used as a positive control.

[6] = system: GC‐C/cGMP pathway; settings: modulated by MRP4; ref Tchernychev et al. 2015; cited from earlier work
Text: The cystic fibrosis transmembrane conductance regulator (CFTR) is a cyclic adenosine monophosphate (cAMP) and cGMP‐regulated anion‐selective channel that is expressed on the apical domain of intestinal epithelial cells where it serves as the main conductive pathway for Cl^− and HCO3 ^− ions transported across the membrane into the lumen (Riordan et al. 1989; Anderson et al. 1991; Vaandrager et al. 1997).

For linaclotide, the cGMP efflux [1] is given as “induce cGMP efflux”, the antinociceptive effect [2] is given as “antinociceptive effects in several models of colonic hypersensitivity” and the cGMP efflux [3] is given as “induce cGMP efflux”. For the same substance, the cGMP efflux [4] was “induce cGMP efflux”, the “phosphorylation of VASP Ser239” value [5] was “more robust phosphorylation of VASP^Ser239 compared to 8Br‐cGMP; also recorded: higher levels of VASP^Ser239 phosphorylation compared to the lower concentration” and the “phosphorylation of VASP Ser239” value ([5]; listed as Linaclotide) was “more strongly enhanced phosphorylation of VASP^Ser239 compared to the cGMP analog 8‐Br‐cGMP”. The transepithelial electrolyte secretion [6] was “increased transepithelial electrolyte secretion across the mucosa”.

From article PMC5471438, “Linaclotide activates guanylate cyclase‐C/cGMP/protein kinase‐II‐dependent trafficking of CFTR in the intestine” (Physiological Reports, 2017)
